Article PMC11672801, “Synthesis of Temporin-SHa Retro Analogs with Lysine Addition/Substitution and Antibiotic Conjugation to Enhance Antibacterial, Antifungal, and Anticancer Activities” (Antibiotics, 2024)
Values after ≈ are worked out from the molar mass of the structure shown. Where two headings read alike, the source gives them in different places. Where a SMILES comes first, the peptide text is derived from it. [ ]: non-standard residue; d: D form. The star is where a group is joined. Levofloxacinoyl = C[C@H]1COc2c(N3CCN(C)CC3)c(F)cc3c(=O)c(C(=O)*)cn1c23

Key:
[1] = system: B. subtilis (ATCC 23857); experiment: Antibacterial broth microdilution MIC assay; assay type: cell-based, Bacillus subtilis; conditions: >99% inhibition of growth, MH broth, 20-22 h, 37 °C
Protocol: (§1) The antibacterial activity of peptide analogs was tested against different bacterial strains, i.e., Salmonella enterica subsp. enterica serotype Typhimurium or Salmonella typhi (ATCC 14028), Staphylococcus aureus (NCTC 13277), Bacillus subtilis (ATCC 23857), Escherichia coli (ATCC 25922), and Pseudomonas aeruginosa (ATCC 10145). These strains were obtained from the microbial bank of Dr. Panjwani Center for Molecular Medicine and Drug research (PCMD), International Center for Chemical and Biological Sciences (ICCBS), University of Karachi. Colonies of these bacterial strains were grown in respective agar media, then inoculated in Mueller Hinton (MH) broth (Oxoid, UK) and incubated at 37 °C overnight. The peptide solutions were first diluted 1 in 100 (from the stock solution at 20 mM) and then further two-fold dilution in MH broth in a sterile 96-well plate was performed, resulting in 100 µL of broth containing increasing concentrations of analogs. Bacteria in their exponential growth phase were diluted in MH broth, and 100 µL of this suspension was added in each well. […] Then, these plates were incubated at 37 °C for 20–22 h. MIC (Minimum Inhibitory Concentration) values were determined as the concentrations of peptides causing >99% inhibition of bacterial growth.

[2] = system: E. coli (ATCC 25922); experiment: Antibacterial broth microdilution MIC assay; assay type: cell-based, Escherichia coli; conditions: >99% inhibition of growth, MH broth, 20-22 h, 37 °C
Protocol: as §1

[3] = system: P. aeruginosa (ATCC 10145); experiment: Antibacterial broth microdilution MIC assay; assay type: cell-based, Pseudomonas aeruginosa; conditions: >99% inhibition of growth, MH broth, 20-22 h, 37 °C
Protocol: as §1

[4] = system: C. albicans (ATCC 36082); experiment: microbe, parasite or virus in culture
Protocol: Candida albicans (ATCC 36082) was cultured on Sabourad Dextrose Agar (SDA). A single colony was inoculated in Sabouraud Dextrose Broth (SDB) medium and grown overnight at 37 °C while shaking. The next day, the susceptibility of C. albicans was tested using a broth microdilution assay. Peptide analogs were diluted in SDB media by two-fold dilution, resulting in 100 µL of medium containing increasing concentrations of analogs. The overnight culture (turbidity at OD600 = 1) was 1000× diluted in SDB. Then 100 µL of this suspension was added to each well, resulting in a final 200 µL suspension containing 2–4 × 10^5 CFU/mL. The plate was incubated at 37 °C for 24 h. The next day, MIC (Minimum Inhibitory Concentration) values were determined as the concentrations of peptides causing > 99% inhibition of yeast growth.

[5] = system: Human breast cancer (MCF-7) cells; experiment: cells; assay type: cell-based
Protocol: (§2) Human breast cancer (MCF-7) and human cervical cancer (HeLa) cells were obtained from the cell culture bank of PCMD in ICCBS, University of Karachi. These cells were maintained in Dulbecco’s Modified Eagle Medium (DMEM), supplemented with 10% fetal bovine serum, and incubated at 37 °C and 5% CO2. The antiproliferative activity of the samples was determined by a MTT assay. Briefly, the cells were washed with PBS and trypsinized. After determination of the cell number using Malassez cell counting, 100 µL of the cell suspension were seeded in a 96-well plate at the density of 6000 cells/well and incubated at 37 °C and 5% CO2. After 24 h, the cells were treated with increasing concentrations of analogs. The next day, media was removed and 200 µL of MTT dye (0.5 mg/mL) was added in each well and incubated for 3 h at 37 °C in 5% CO2 incubator. Then, the media was removed and 100 µL of DMSO was added to solubilize formazan crystals. After one minute of shaking, the absorbance was recorded at 540 nm in microplate reader (Multiskan GO, ThermoScientific, Waltham, MA, USA). Finally, the percent inhibition of proliferation was calculated using the following formula: % inhibition of proliferation=O.D of treated well−O.D of media control/O.D of untreated control−O.D of media control×100

[6] = system: human cervical cancer (HeLa) cells; experiment: cells; assay type: cell-based
Protocol: as §2

[7] = system: human red blood cells (RBC); experiment: Hemolytic assay; assay type: cell-based; conditions: 1 h
Protocol: For the hemolytic assay, fresh human blood (2 mL) was obtained from a healthy donor in EDTA tube while following the protocol of approval from the Independent Ethics Committee of ICCBS (approval number ICCBS/IEC-047-HB-2019/Protocol/1.0). The blood was centrifuged and upper supernatant plasma was removed. The cell pellets were washed with sterile PBS three times. The washed blood cells were then diluted 25 times to make 4% concentration of the initial blood cells. Red blood cells (500 µL) were treated with increasing concentrations of analogs, with triton X-100 at 0.1% being used as positive control giving 100% hemolysis. After 1 h of incubation at 37 °C, tubes were centrifuged at 800 rpm for 5 min to pellet down red blood cells. After centrifugation, 200 µL of supernatant were transferred into a 96 well plate and the absorbance was recorded at 576 nm using a microplate reader (MultiSkan Go, ThermoScientific). Then, the following formula was applied to calculate percent hemolysis: % Hemolysis=O.D of test sample−O.D of PBS control/O.D of Tritox×positive control−O.D of PBS control×100

[8] = system: S. aureus (NCTC 13277); experiment: microbe, parasite or virus in culture; conditions: Staphylococcus aureus, NCTC13277, read-out: MIC S. aureus (NCTC 13277)
[9] = system: S. typhi (ATCC 14028); experiment: microbe, parasite or virus in culture; conditions: Salmonella enterica, read-out: MIC S. typhi (ATCC 14028)
[10] = system: S. aureus (NCTC 13277); conditions: >99% inhibition of growth, MH broth, 20-22 h, 37 °C
[11] = system: S. typhi (ATCC 14028)
[12] = system: human red blood cells (RBC); conditions: previously reported; cited from earlier work
[13] = system: cancer cells (MCF-7, HeLa); parameters: species or system human
Protocol: The selectivity of action of the analogs against micro-organisms or cancer cells was further evaluated through calculation of their selectivity indexes (SIs). SIs were determined using either the MIC on micro-organisms or IC50 on cancer cells compared to HC50 values, and they are reported in Table 6.

[14] = Circular dichroism secondary structure analysis (Bestsel) in 20 mM SDS; assay type: physicochemical; conditions: CD, 15 µM peptide in 20 mM SDS, 22 °C
Protocol: The far-ultraviolet circular dichroism (CD) spectra were recorded using a JASCO J-810 spectropolarimeter (Jasco, Tokyo, Japan), with measurements taken in a quartz cuvette with a 10 mm path length. The temperature was kept at 22 °C, and the instrument was calibrated with D-(+)-10-camphorsulfonic acid. Peptides were dissolved in 20 mM SDS to a final concentration of 15 µM. The CD spectra were collected over a wavelength range of 190 to 260 nm with a bandwidth of 2 nm. Each spectrum was recorded with ten consecutive scans at a rate of 50 nm/min, and the baseline was obtained under identical conditions. Secondary structures, i.e., the percentage of alpha-helix and other secondary structures, were quantified from CD data using Bestsel software (https://bestsel.elte.hu/index.php, accessed on 22 October 2024).

[15] = system: E. coli; experiment: Atomic force microscopy imaging of treated bacteria; assay type: cell-based, Escherichia coli; conditions: 2XMIC, overnight, tapping mode
Protocol: (§3) Different bacteria (S. typhi, E. coli, and P. aeruginosa) adjusted to 2–3 × 10^7 CFU/mL were treated with 2XMIC values of analogs and incubated overnight at 37 °C. The next day, the bacteria were washed, dispersed in sterile pure grade water, dispensed in poly-L-lysine-coated mica slides, and left for air drying. Changes in the morphology of the bacteria were studied with an atomic force microscope (Agilent 5500, Chandler, AZ, USA). The whole analysis was carried out in tapping mode. Images were collected and optimized at a scan velocity of 1–5 µm/s and 512 × 512-line resolution and processed through PicoView 1.2 imaging software.

[16] = system: P. aeruginosa; experiment: as above; assay type: cell-based, Pseudomonas aeruginosa; conditions: 2XMIC, overnight, tapping mode
Protocol: as §3

[17] = MTT, 24 h exposure, read-out: IC50 on Cervical Cancer (HeLa)

C[C@H]1COc2c(N3CCN(C)CC3)c(F)cc3c(=O)c(C(=O)O)cn1c23 [Levofloxacin, reference compound]
MIC ([1]; Bacillus subtilis, ATCC23857): 0.39 µM (≈ 0.141 µg/mL) | MIC ([2]; Escherichia coli, ATCC25922): 0.78 µM (≈ 0.282 µg/mL) | MIC ([3]; Pseudomonas aeruginosa, ATCC10145): 1.56 µM (≈ 0.564 µg/mL) | MIC ([4]; Candida albicans, ATCC36082, 24 h, read-out: MIC C. albicans (ATCC 36082)): > 250 µM | IC50 ([5]; Homo sapiens, MCF7, MTT, 24 h exposure, read-out: IC50 on Breast Cancer (MCF-7)): > 100 µM | IC50 ([6]; Homo sapiens, HeLa, MTT, 24 h exposure, read-out: IC50 on Cervical Cancer (HeLa)): > 100 µM | HC50 on Human Red Blood Cells (RBCs) ([7]; human): >100 µM | MIC [8]: 25 µM (≈ 9.03 µg/mL) | MIC [9]: 0.39 µM (≈ 0.141 µg/mL)

CC[C@H](C)[C@H](NC(=O)[C@@H](C)NC(=O)[C@H](CO)NC(=O)[C@H](CC(C)C)NC(=O)[C@@H](N)Cc1ccccc1)C(=O)N[C@H](C(=O)NCC(=O)N[C@@H](CCSC)C(=O)N[C@@H](CC(C)C)C(=O)NCC(=O)N[C@@H](CCCCN)C(=O)N[C@@H](CC(C)C)C(=O)N[C@@H](Cc1ccccc1)C(N)=O)C(C)C [NST-2 (1), H-Phe^1-Leu^2-Ser^3-D-Ala^4-Ile^5-Val^6-Gly^7-Met^8-Leu^9-Gly^10-Lys^11-Leu^12-Phe^13-NH2] (H-FLS[dA]IVGMLGKLF-NH2)
MIC [1]: 6.25 µM (≈ 8.72 µg/mL) | MIC [2]: 125 µM (≈ 174 µg/mL) | MIC [3]: >250 µM | MIC C. albicans (ATCC 36082) ([4]; >99% inhibition of yeast growth, SDB, 24 h, 37 °C): 20 µM (≈ 27.9 µg/mL) | IC50 ([5]; lowest IC50 on cancer cells = MCF-7 (peptides 1, 2, 7), from Table 5, read-out: Lower IC50): 17.9 µM | IC50 [6, 17]: > 100 µM | HC50 on Human Red Blood Cells (RBCs) ([7]; 37 °C, 0.1% triton X-100 = 100% hemolysis): 90.0 µM | MIC S. aureus (NCTC 13277) [10]: 14.34 µM (≈ 20 µg/mL) | MIC S. typhi (ATCC 14028) ([11]; ATCC 14028): 250 µM (≈ 349 µg/mL) | hemolysis HC50 [12]: 90.0 µM

CC[C@H](C)[C@H](NC(=O)[C@@H](NC(=O)CNC(=O)[C@H](CCSC)NC(=O)[C@H](CC(C)C)NC(=O)CNC(=O)[C@H](CCCCNC(=O)c1cn2c3c(c(N4CCN(C)CC4)c(F)cc3c1=O)OC[C@@H]2C)NC(=O)[C@H](CC(C)C)NC(=O)[C@@H](N)Cc1ccccc1)C(C)C)C(=O)N[C@H](C)C(=O)N[C@@H](CO)C(=O)N[C@@H](CC(C)C)C(=O)N[C@@H](Cc1ccccc1)C(=O)N[C@@H](CCCCN)C(N)=O [RLFP-2 (5), H-Phe^1-Leu^2-Lys^3(LF)-Gly^4-Leu^5-Met^6-Gly^7-Val^8-Ile^9-D-Ala^10-Ser^11-Leu^12-Phe^13-Lys^14-NH2] (H-FLK(Levofloxacinoyl)GLMGVI[dA]SLFK-NH2)
MIC [1]: 50 µM (≈ 93.3 µg/mL) | MIC [2]: >200 µM | MIC [3]: >200 µM | MIC C. albicans (ATCC 36082) ([4]; ATCC 36082, 24 h): >250 µM | IC50 ([5]; 24 h): > 100 µM | IC50 ([6]; 24 h): > 100 µM | HC50 on Human Red Blood Cells (RBCs) ([7]; red cells of human): 25.0 µM | IC50 [13]: > 100 µM | MIC S. aureus (NCTC 13277) [10]: 100 µM (≈ 187 µg/mL) | MIC S. typhi (ATCC 14028) ([11]; ATCC 14028): 200 µM (≈ 373 µg/mL)

CC[C@H](C)[C@H](NC(=O)[C@@H](NC(=O)CNC(=O)[C@H](CCSC)NC(=O)[C@H](CC(C)C)NC(=O)CNC(=O)[C@H](CCCCN)NC(=O)[C@H](CC(C)C)NC(=O)[C@@H](N)Cc1ccccc1)C(C)C)C(=O)N[C@H](C)C(=O)N[C@@H](CO)C(=O)N[C@@H](CC(C)C)C(=O)N[C@@H](Cc1ccccc1)C(=O)N[C@@H](CCCCN)C(N)=O [RSP-1 (3), H-Phe^1-Leu^2-Lys^3-Gly^4-Leu^5-Met^6-Gly^7-Val^8-Ile^9-D-Ala^10-Ser^11-Leu^12-Phe^13-Lys^14-NH2] (H-FLKGLMGVI[dA]SLFK-NH2)
MIC [1]: 1.56 µM (≈ 2.38 µg/mL) | MIC [2]: 25 µM (≈ 38.1 µg/mL) | MIC [3]: 50 µM (≈ 76.1 µg/mL) | MIC C. albicans (ATCC 36082) ([4]; ATCC 36082, 24 h): 15.6 µM (≈ 23.8 µg/mL) | IC50 ([5]; 24 h): 42.7 µM | IC50 [6, 17]: 33.5 µM | HC50 on Human Red Blood Cells (RBCs) ([7]; red cells of human): 51.0 µM | Antiparallel (%) [14]: 18.2% | Helix (%) [14]: 81.8% | Others (%) [14]: 0.00% | Parallel (%) [14]: 0.00% | Turn (%) [14]: 0.00% | AFM morphology of E. coli after treatment [15]: significant damages to the bacteria | AFM morphology of P. aeruginosa after treatment [16]: significant damages to the bacteria | MIC S. aureus (NCTC 13277) [10]: 6.25 µM (≈ 9.52 µg/mL) | MIC S. typhi (ATCC 14028) ([11]; >99% inhibition of growth, MH broth, 20-22 h, 37 °C): 50 µM (≈ 76.1 µg/mL)
